The subject of this assay is P388 leukemia ip, CD2F1 mice, survival T/C. Nature of the assay: NCI In Vivo Anticancer Drug Screen. Data for tumor model P388 Leukemia (intraperitoneal) in CD2F1 (CDF1) mice. As to conditions: endpoint: median survival time, higher = longer survival. Summed up: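 Mice carrying the transplanted tumor received test compound or vehicle. Survival was recorded in each group, and the value is the treated-group measurement divided by that of the vehicle-treated control group.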

The mark [1] stands for this setting: dose: 100.0 mg/kg/injection, schedule: Q04DX003 (ip), vehicle: saline with Tween-80.
The mark [2] stands for this setting: dose: 100.0 mg/kg/injection, schedule: Q01DX001 (ip), vehicle: saline with Tween-80.
The mark [3] stands for this setting: dose: 200.0 mg/kg/injection, schedule: Q01DX001 (ip), vehicle: saline with Tween-80.
Where [4] appears, read: dose: 400.0 mg/kg/injection, schedule: Q01DX001 (ip), vehicle: saline with Tween-80.
[5] abbreviates: dose: 50.0 mg/kg/injection, schedule: Q01DX009 (ip), vehicle: saline with Tween-80.
[6] abbreviates: dose: 200.0 mg/kg/injection, schedule: Q01DX009 (ip), vehicle: saline.
Where [7] appears, read: dose: 100.0 mg/kg/injection, schedule: Q01DX001 (ip), vehicle: Klucel (hydroxypropylcellulose) (HPC).
Setting [8] is: dose: 200.0 mg/kg/injection, schedule: Q01DX001 (ip), vehicle: Klucel (hydroxypropylcellulose) (HPC).

“And” between values parts separate entries of the source, which are not always exact repeats. Equal entries are not always repeated. Inconclusive results and toxic doses are left out.

Turning to `O=C/C=C/c1ccc([N+](=O)[O-])cc1`, the T/C runs as follows: (dose: 25.0 mg/kg/injection, schedule: Q04DX003 (ip), vehicle: saline with Tween-80) 100 % of control; (dose: 50.0 mg/kg/injection, schedule: Q04DX003 (ip), vehicle: saline with Tween-80) 110 % of control; under setting [1], 105 % of control.

For `O=C(NCc1nc2ccccc2[nH]1)C(F)(F)F`, the T/C (dose: 60.0 mg/kg/injection, schedule: Q01DX005 (ip), vehicle: Klucel (hydroxypropylcellulose) (HPC)) is 103 % of control; the T/C (dose: 120.0 mg/kg/injection, schedule: Q01DX005 (ip), vehicle: Klucel (hydroxypropylcellulose) (HPC)) was 105 % of control; the T/C (dose: 240.0 mg/kg/injection, schedule: Q01DX005 (ip), vehicle: Klucel (hydroxypropylcellulose) (HPC)) was 104 % of control.

For the molecule `CC(C)N(c1ccc(O)c2ccccc12)C(C)C`, the T/C runs as follows: under setting [2], 96 % of control; under setting [3], 100 % of control; under setting [4], 95 % of control.

In the case of `Nc1ccc(S(=O)(=O)NCCO)cc1[N+](=O)[O-]`, the T/C under setting [2] is 95 % of control, the T/C under setting [3] is 100 % of control and the T/C under setting [4] was 100 % of control.

For the molecule `COc1ccc2c(c1O)-c1cccc3c1C(C2)N(CCOCCCl)CC3` (configuration not stated), the T/C (dose: 12.5 mg/kg/injection, schedule: Q04DX003 (ip), vehicle: water) was 99 % of control; the T/C (dose: 25.0 mg/kg/injection, schedule: Q04DX003 (ip), vehicle: water) was 107 % of control; the T/C (dose: 50.0 mg/kg/injection, schedule: Q04DX003 (ip), vehicle: water) is 101 % of control; the T/C (dose: 100.0 mg/kg/injection, schedule: Q04DX003 (ip), vehicle: water) was 104 % of control.

On to `COc1ccc2c(c1CCl)C(=O)OC2`, for which the T/C runs as follows: (dose: 12.5 mg/kg/injection, schedule: Q01DX009 (ip), vehicle: saline with Tween-80) 96 % of control; (dose: 25.0 mg/kg/injection, schedule: Q01DX009 (ip), vehicle: saline with Tween-80) 111 % of control; under setting [5], 101 % of control and 89 % of control.

On to `Nc1nc(Cl)cc2nsnc12`, for which the T/C is, setting by setting: (dose: 100.0 mg/kg/injection, schedule: Q04DX002 (ip), vehicle: saline) 97 % of control; (dose: 200.0 mg/kg/injection, schedule: Q04DX002 (ip), vehicle: saline) 99 % of control; (dose: 400.0 mg/kg/injection, schedule: Q04DX002 (ip), vehicle: saline) 95 % of control.

`FC(F)(F)c1ccc(Cl)c(NC(=S)SC2CCCCC2)c1`: the T/C runs as follows: (dose: 50.0 mg/kg/injection, schedule: Q01DX009 (ip), vehicle: saline) 100 % of control; (dose: 100.0 mg/kg/injection, schedule: Q01DX009 (ip), vehicle: saline) 100 % of control; under setting [6], 97 % of control.

Consider `CCCCCCC(=O)/C=C/c1ccc2c(c1)OCO2`, for which the T/C was 96 % of control under setting [5]; 102 % of control (dose: 100.0 mg/kg/injection, schedule: Q01DX009 (ip), vehicle: saline with Tween-80); 91 % of control (dose: 200.0 mg/kg/injection, schedule: Q01DX009 (ip), vehicle: saline with Tween-80).

As for `CCOC(=O)CCCCCNC(=O)N1c2c(nc(N)[nH]c2=O)NCC1CNc1ccc(C(=O)NC(CCC(=O)O)C(=O)O)cc1` (configuration not stated), the T/C is 97 % of control (dose: 100.0 mg/kg/injection, schedule: Q01DX009 (ip), vehicle: sodium bicarbonate); 91 % of control (dose: 200.0 mg/kg/injection, schedule: Q01DX009 (ip), vehicle: sodium bicarbonate); 97 % of control (dose: 400.0 mg/kg/injection, schedule: Q01DX009 (ip), vehicle: sodium bicarbonate).

`COc1cccc2c1C(=O)c1c(O)c3c(c(O)c1C2=O)CC(O)(C(=O)COC(C)=O)CC3OC1CC(NC(C)=O)C(O)C(C)O1` (configuration not stated): the T/C was 122 % of control (dose: 0.78 mg/kg/injection, schedule: Q01DX009 (ip), vehicle: other) and 120 % of control (dose: 3.13 mg/kg/injection, schedule: Q01DX009 (ip), vehicle: other).

`O=C1NC(=O)C2(Cc3cccc4cccc2c34)N1` (configuration not stated): the T/C was 103 % of control (dose: 50.0 mg/kg/injection, schedule: Q01DX005 (ip), vehicle: saline with Tween-80); 100 % of control (dose: 100.0 mg/kg/injection, schedule: Q01DX005 (ip), vehicle: saline with Tween-80); 99 % of control (dose: 200.0 mg/kg/injection, schedule: Q01DX005 (ip), vehicle: saline with Tween-80).

Turning to `C=CC[Si](CC=C)(c1ccccc1)c1ccccc1`, the T/C is 99 % of control and 96 % of control (2×) (dose: 6.25 mg/kg/injection, schedule: Q01DX009 (ip), vehicle: saline); 98 % of control under setting [6].

Regarding `Cn1c(N)c(C(=O)Nc2ccccc2)c(=O)n(C)c1=O`, the T/C under setting [7] was 87 % of control and the T/C under setting [8] is 88 % of control.

Consider `CC1CN1P(=O)(N1CC1C)N1CC1C` (configuration not stated), for which the T/C is, setting by setting: (dose: 3.13 mg/kg/injection, schedule: Q04DX003 (ip), vehicle: saline) 104 % of control; (dose: 6.25 mg/kg/injection, schedule: Q04DX003 (ip), vehicle: saline) 109 % of control; (dose: 12.5 mg/kg/injection, schedule: Q04DX003 (ip), vehicle: saline) 109 % of control; (dose: 50.0 mg/kg/injection, schedule: Q04DX003 (ip), vehicle: saline) 222 % of control; (dose: 100.0 mg/kg/injection, schedule: Q04DX003 (ip), vehicle: saline) 86 % of control.

Turning to `CN/N=C/c1ccc(O)c(OC)c1`, the T/C is 100 % of control under setting [1]; 100 % of control (dose: 200.0 mg/kg/injection, schedule: Q04DX003 (ip), vehicle: saline with Tween-80); 100 % of control (dose: 400.0 mg/kg/injection, schedule: Q04DX003 (ip), vehicle: saline with Tween-80).

Regarding `CN(/C=C/C=C/C=N/O)c1ccccc1`, the T/C is, setting by setting: (dose: 50.0 mg/kg/injection, schedule: Q01DX001 (ip), vehicle: Klucel (hydroxypropylcellulose) (HPC)) 104 % of control; under setting [7], 100 % of control; under setting [8], 99 % of control.

For `CCCCCC(=O)C(=O)c1ccc(O)c(C)c1O`, the T/C by setting is: (dose: 50.0 mg/kg/injection, schedule: Q01DX009 (ip), vehicle: Klucel (hydroxypropylcellulose) (HPC)) 95 % of control; (dose: 100.0 mg/kg/injection, schedule: Q01DX009 (ip), vehicle: Klucel (hydroxypropylcellulose) (HPC)) 89 % of control.

`CCCCCCCCn1c(C)nc2c(cnn2C)c1=O`: the T/C is, setting by setting: (dose: 50.0 mg/kg/injection, schedule: Q01DX005 (ip), vehicle: Klucel (hydroxypropylcellulose) (HPC)) 100 % of control; (dose: 100.0 mg/kg/injection, schedule: Q01DX005 (ip), vehicle: Klucel (hydroxypropylcellulose) (HPC)) 96 % of control; (dose: 200.0 mg/kg/injection, schedule: Q01DX005 (ip), vehicle: Klucel (hydroxypropylcellulose) (HPC)) 100 % of control.

For `CCCCC1SCC(=O)N1c1nncs1` (configuration not stated), the T/C is 104 % of control (dose: 60.0 mg/kg/injection, schedule: Q01DX005 (ip), vehicle: saline with Tween-80); 98 % of control (dose: 120.0 mg/kg/injection, schedule: Q01DX005 (ip), vehicle: saline with Tween-80); 103 % of control (dose: 240.0 mg/kg/injection, schedule: Q01DX005 (ip), vehicle: saline with Tween-80).

As to `CN(C)c1nc(O)c(N=O)c(=O)[nH]1`, the T/C runs as follows: (dose: 50.0 mg/kg/injection, schedule: Q04DX002 (ip), vehicle: suspension in saline) 100 % of control; (dose: 100.0 mg/kg/injection, schedule: Q04DX002 (ip), vehicle: suspension in saline) 107 % of control; (dose: 200.0 mg/kg/injection, schedule: Q04DX002 (ip), vehicle: suspension in saline) 108 % of control.

For the origin of these results see PubChem BioAssay AID330 (DTP/NCI, 2004).
